Assay results as given in patent US20260297081A1, “COMPOUNDS AND METHODS OF TREATING CANCERS” (Cullgen Inc., priority 2023, published 2026).

Biological target: CDK4 (Homo sapiens, UniProt P11802+Q16531)
Assay: CDK4 percentage degradation in Calu-1 cells (Table 6)
Assay type: cell-based
Set-up: Cells that express cyclin D1-3 and CDK4/6 proteins were treated with heterobifunctional compounds; endogenous in cells; host or cells: Calu-1
Settings: 16 hours; for inhibition at 0.04 µM: 40 nM; for inhibition at 0.2 µM: 200 nM
Outline: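 Calu-1 cells exposed to heterobifunctional compounds at 40 nM or 200 nM for 16 h. Cyclin D1 and CDK4 levels measured by Western blot of RIPA lysates (BCA-normalised loading), bands quantified by densitometry and expressed as percentage degradation.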

CDK4, sequence (P11802 2-303 limits assumed): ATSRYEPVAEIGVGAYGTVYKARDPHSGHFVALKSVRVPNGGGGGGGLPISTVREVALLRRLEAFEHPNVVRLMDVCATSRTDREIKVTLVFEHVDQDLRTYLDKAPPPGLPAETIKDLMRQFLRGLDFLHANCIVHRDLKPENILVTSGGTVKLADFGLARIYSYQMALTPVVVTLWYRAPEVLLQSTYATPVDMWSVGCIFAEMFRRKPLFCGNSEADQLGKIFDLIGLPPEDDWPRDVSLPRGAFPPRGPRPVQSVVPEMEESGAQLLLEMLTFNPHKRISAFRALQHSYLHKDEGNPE
CDK4, sequence (P24385 whole entry partner): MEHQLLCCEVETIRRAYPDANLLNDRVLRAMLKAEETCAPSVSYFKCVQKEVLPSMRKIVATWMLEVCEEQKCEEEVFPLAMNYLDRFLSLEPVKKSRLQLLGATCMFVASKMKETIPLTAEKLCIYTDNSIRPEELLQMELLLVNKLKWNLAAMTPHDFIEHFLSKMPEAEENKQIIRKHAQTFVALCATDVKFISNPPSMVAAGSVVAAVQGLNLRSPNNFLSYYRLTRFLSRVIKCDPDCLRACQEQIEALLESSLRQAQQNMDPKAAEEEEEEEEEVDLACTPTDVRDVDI
CDK4, sequence (Q16531 2-1140 limits assumed): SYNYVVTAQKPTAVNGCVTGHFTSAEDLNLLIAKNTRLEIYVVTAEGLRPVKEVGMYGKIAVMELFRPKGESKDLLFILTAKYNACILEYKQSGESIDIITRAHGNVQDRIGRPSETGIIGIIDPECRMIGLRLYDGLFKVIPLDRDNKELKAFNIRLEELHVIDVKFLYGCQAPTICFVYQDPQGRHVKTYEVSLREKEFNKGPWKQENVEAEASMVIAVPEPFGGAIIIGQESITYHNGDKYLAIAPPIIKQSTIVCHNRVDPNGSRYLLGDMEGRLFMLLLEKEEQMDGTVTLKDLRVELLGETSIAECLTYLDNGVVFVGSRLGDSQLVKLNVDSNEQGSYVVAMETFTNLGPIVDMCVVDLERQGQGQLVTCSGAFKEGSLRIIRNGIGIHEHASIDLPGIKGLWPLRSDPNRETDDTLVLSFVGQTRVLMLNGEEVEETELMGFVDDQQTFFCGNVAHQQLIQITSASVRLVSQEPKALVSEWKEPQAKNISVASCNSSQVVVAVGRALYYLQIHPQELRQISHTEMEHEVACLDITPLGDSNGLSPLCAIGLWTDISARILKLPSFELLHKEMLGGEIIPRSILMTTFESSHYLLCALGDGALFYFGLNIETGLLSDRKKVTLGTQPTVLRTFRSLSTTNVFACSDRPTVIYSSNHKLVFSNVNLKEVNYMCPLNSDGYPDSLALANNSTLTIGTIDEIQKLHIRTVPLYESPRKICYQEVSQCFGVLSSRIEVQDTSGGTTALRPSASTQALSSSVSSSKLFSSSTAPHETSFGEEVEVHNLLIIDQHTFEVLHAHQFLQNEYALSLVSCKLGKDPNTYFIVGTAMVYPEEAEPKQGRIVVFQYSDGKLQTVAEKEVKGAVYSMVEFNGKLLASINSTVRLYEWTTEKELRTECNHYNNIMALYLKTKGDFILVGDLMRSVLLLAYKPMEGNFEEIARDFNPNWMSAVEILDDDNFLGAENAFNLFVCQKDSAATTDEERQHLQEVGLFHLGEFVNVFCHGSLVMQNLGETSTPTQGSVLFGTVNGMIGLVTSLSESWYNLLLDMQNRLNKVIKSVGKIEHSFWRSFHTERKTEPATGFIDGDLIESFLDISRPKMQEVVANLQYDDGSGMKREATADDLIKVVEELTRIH

SMILES	inhibition at 0.04 µM	inhibition at 0.2 µM
CNc1ccc(C(=O)Nc2ccc(N(C)C)nn2)c(NCCC2CCN(C(=O)CN3CCN(c4ccc(Nc5ncc6c(C)c(C(C)=O)c(=O)n(C7CCCC7)c6n5)nc4)CC3)CC2)n1 [CPD-89, 2-((2-(1-(2-(4-(6-((6-Acetyl-8-cyclopentyl-5-methyl-7-oxo-7,8-dihydropyrido[2,3-d]pyrimidin-2-yl)amino)pyridin-3-yl)piperazin-1-yl)acetyl)piperidin-4-yl)ethyl)amino)-N-(6-(dimethylamino)pyridazin-3-yl)-6-(methylamino)nicotinamide]	50 to 80%	50 to 80%
CNc1ccc(C(=O)Nc2cccc(C(F)(F)F)n2)c(NC2CC3(CC(NC(=O)CN4CCN(c5ccc(Nc6ncc7c(C)c(C(C)=O)c(=O)n(C8CCCC8)c7n6)nc5)CC4)C3)C2)n1 (stereo not shown) [CPD-91, 2-((6-(2-(4-(6-((6-Acetyl-8-cyclopentyl-5-methyl-7-oxo-7,8-dihydropyrido[2,3-d]pyrimidin-2-yl)amino)pyridin-3-yl)piperazin-1-yl)acetamido)spiro[3.3]heptan-2-yl)amino)-6-(methylamino)-N-(6-(trifluoromethyl)pyridin-2-yl)nicotinamide]	< 30%	30 to 50%
CNc1ccc(C(=O)Nc2cc(C)[nH]n2)c(NC2CC3(CC(NC(=O)CN4CCN(c5ccc(Nc6ncc7c(C)c(C(C)=O)c(=O)n(C8CCCC8)c7n6)nc5)CC4)C3)C2)n1 (stereo not shown) [CPD-92, 2-((6-(2-(4-(6-((6-Acetyl-8-cyclopentyl-5-methyl-7-oxo-7,8-dihydropyrido[2,3-d]pyrimidin-2-yl)amino)pyridin-3-yl)piperazin-1-yl)acetamido)spiro[3.3]heptan-2-yl)amino)-N-(5-methyl-1H-pyrazol-3-yl)-6-(methylamino)nicotinamide]	< 30%	< 30%
CNc1ccc(C(=O)Nc2cnn(C)c2)c(NC2CC3(CC(NC(=O)CN4CCN(c5ccc(Nc6ncc7c(C)c(C(C)=O)c(=O)n(C8CCCC8)c7n6)nc5)CC4)C3)C2)n1 (stereo not shown) [CPD-94, 2-((6-(2-(4-(6-((6-Acetyl-8-cyclopentyl-5-methyl-7-oxo-7,8-dihydropyrido[2,3-d]pyrimidin-2-yl)amino)pyridin-3-yl)piperazin-1-yl)acetamido)spiro[3.3]heptan-2-yl)amino)-N-(1-methyl-1H-pyrazol-4-yl)-6-(methylamino)nicotinamide]	< 30%	30 to 50%
CNc1ccc(C(=O)Nc2cc(C(C)C)n(C)n2)c(NC2CC3(CC(NC(=O)CN4CCN(c5ccc(Nc6ncc7c(C)c(C(C)=O)c(=O)n(C8CCCC8)c7n6)nc5)CC4)C3)C2)n1 (stereo not shown) [CPD-95, 2-((6-(2-(4-(6-((6-Acetyl-8-cyclopentyl-5-methyl-7-oxo-7,8-dihydropyrido[2,3-d]pyrimidin-2-yl)amino)pyridin-3-yl)piperazin-1-yl)acetamido)spiro[3.3]heptan-2-yl)amino)-N-(5-isopropyl-1-methyl-1H-pyrazol-3-yl)-6-(methylamino)nicotinamide]	< 30%	< 30%
CNc1ccc(C(=O)Nc2ccc(N(C)C)nn2)c(NC2CC3(CC(NCCN4CCN(c5ccc(Nc6ncc7c(C)c(C(C)=O)c(=O)n(C8CCCC8)c7n6)nc5)CC4)C3)C2)n1 (stereo not shown) [CPD-96, 2-((6-((2-(4-(6-((6-Acetyl-8-cyclopentyl-5-methyl-7-oxo-7,8-dihydropyrido[2,3-d]pyrimidin-2-yl)amino)pyridin-3-yl)piperazin-1-yl)ethyl)amino)spiro[3.3]heptan-2-yl)amino)-N-(6-(dimethylamino)pyridazin-3-yl)-6-(methylamino)nicotinamide]	< 30%	< 30%
CNc1ccc(C(=O)Nc2ccc(N(C)C)nn2)c(NC2CC3(C2)CN(C(=O)CN2CCN(c4ccc(Nc5ncc6c(C)c(C(C)=O)c(=O)n(C7CCCC7)c6n5)nc4)CC2)C3)n1 [CPD-97]	50 to 80%	> 80%
CNc1ccc(C(=O)Nc2cc(C3CC3)n(C)n2)c(NC2CC3(CC(NC(=O)CN4CCN(c5ccc(Nc6ncc7c(C)c(C(C)=O)c(=O)n(C8CCCC8)c7n6)nc5)CC4)C3)C2)n1 (stereo not shown) [CPD-98, 2-((6-(2-(4-(6-((6-Acetyl-8-cyclopentyl-5-methyl-7-oxo-7,8-dihydropyrido[2,3-d]pyrimidin-2-yl)amino)pyridin-3-yl)piperazin-1-yl)acetamido)spiro[3.3]heptan-2-yl)amino)-N-(5-cyclopropyl-1-methyl-1H-pyrazol-3-yl)-6-(methylamino)nicotinamide]	30 to 50%	50 to 80%
CNc1ccc(C(=O)Nc2cc[nH]n2)c(NC2CC3(CC(NC(=O)CN4CCN(c5ccc(Nc6ncc7c(C)c(C(C)=O)c(=O)n(C8CCCC8)c7n6)nc5)CC4)C3)C2)n1 (stereo not shown) [CPD-100, 2-((6-(2-(4-(6-((6-Acetyl-8-cyclopentyl-5-methyl-7-oxo-7,8-dihydropyrido[2,3-d]pyrimidin-2-yl)amino)pyridin-3-yl)piperazin-1-yl)acetamido)spiro[3.3]heptan-2-yl)amino)-6-(methylamino)-N-(1H-pyrazol-3-yl)nicotinamide]	< 30%	50 to 80%
CNc1ccc(C(=O)Nc2ccc(N)nn2)c(NCCCCCNC(=O)CN2CCN(c3ccc(Nc4ncc5c(C)c(C(C)=O)c(=O)n(C6CCCC6)c5n4)nc3)CC2)n1 [CPD-104, 2-((5-(2-(4-(6-((6-Acetyl-8-cyclopentyl-5-methyl-7-oxo-7,8-dihydropyrido[2,3-d]pyrimidin-2-yl)amino)pyridin-3-yl)piperazin-1-yl)acetamido)pentyl)amino)-N-(6-aminopyridazin-3-yl)-6-(methylamino)nicotinamide]	< 30%	< 30%
CNc1ccc(C(=O)Nc2ccc(C)nn2)c(NCCCCCNC(=O)CN2CCN(c3ccc(Nc4ncc5c(C)c(C(C)=O)c(=O)n(C6CCCC6)c5n4)nc3)CC2)n1 [CPD-105, 2-((5-(2-(4-(6-((6-Acetyl-8-cyclopentyl-5-methyl-7-oxo-7,8-dihydropyrido[2,3-d]pyrimidin-2-yl)amino)pyridin-3-yl)piperazin-1-yl)acetamido)pentyl)amino)-6-(methylamino)-N-(6-methylpyridazin-3-yl)nicotinamide]	< 30%	50 to 80%

Results, then the compound that gave them:

inhibition at 0.04 µM	inhibition at 0.2 µM	SMILES
30 to 50%	50 to 80%	CNc1ccc(C(=O)Nc2cccc(N(C)C)n2)c(NC2CC3(CC(NC(=O)CN4CCN(c5ccc(Nc6ncc7c(C)c(C(C)=O)c(=O)n(C8CCCC8)c7n6)nc5)CC4)C3)C2)n1 (stereo not shown) [CPD-88, 2-((6-(2-(4-(6-((6-Acetyl-8-cyclopentyl-5-methyl-7-oxo-7,8-dihydropyrido[2,3-d]pyrimidin-2-yl)amino)pyridin-3-yl)piperazin-1-yl)acetamido)spiro[3.3]heptan-2-yl)amino)-N-(6-(dimethylamino)pyridin-2-yl)-6-(methylamino)nicotinamide]
< 30%	50 to 80%	CNc1ccc(C(=O)Nc2cccc(C#N)n2)c(NC2CC3(CC(NC(=O)CN4CCN(c5ccc(Nc6ncc7c(C)c(C(C)=O)c(=O)n(C8CCCC8)c7n6)nc5)CC4)C3)C2)n1 (stereo not shown) [CPD-90, 2-((6-(2-(4-(6-((6-Acetyl-8-cyclopentyl-5-methyl-7-oxo-7,8-dihydropyrido[2,3-d]pyrimidin-2-yl)amino)pyridin-3-yl)piperazin-1-yl)acetamido)spiro[3.3]heptan-2-yl)amino)-N-(6-cyanopyridin-2-yl)-6-(methylanino)nicotinamide]
30 to 50%	50 to 80%	CNc1ccc(C(=O)Nc2ccn(C)n2)c(NC2CC3(CC(NC(=O)CN4CCN(c5ccc(Nc6ncc7c(C)c(C(C)=O)c(=O)n(C8CCCC8)c7n6)nc5)CC4)C3)C2)n1 (stereo not shown) [CPD-93, 2-((6-(2-(4-(6-((6-Acetyl-8-cyclopentyl-5-methyl-7-oxo-7,8-dihydropyrido[2,3-d]pyrimidin-2-yl)amino)pyridin-3-yl)piperazin-1-yl)acetamido)spiro[3.3]heptan-2-yl)amino)-N-(1-methyl-1H-pyrazol-3-yl)-6-(methylamino)nicotinamide]
30 to 50%	50 to 80%	CNc1ccc(C(=O)Nc2cc(C)n(C(C)C)n2)c(NC2CC3(CC(NC(=O)CN4CCN(c5ccc(Nc6ncc7c(C)c(C(C)=O)c(=O)n(C8CCCC8)c7n6)nc5)CC4)C3)C2)n1 (stereo not shown) [CPD-99, 2-((6-(2-(4-(6-((6-Acetyl-8-cyclopentyl-5-methyl-7-oxo-7,8-dihydropyrido[2,3-d]pyrimidin-2-yl)amino)pyridin-3-yl)piperazin-1-yl)acetamido)spiro[3.3]heptan-2-yl)amino)-N-(1-isopropyl-5-methyl-1H-pyrazol-3-yl)-6-(methylamino)nicotinamide]
50 to 80%	50 to 80%	CNc1ccc(C(=O)Nc2ccc(N(C)C)nn2)c(NCCCC2CN(C(=O)CN3CCN(c4ccc(Nc5ncc6c(C)c(C(C)=O)c(=O)n(C7CCCC7)c6n5)nc4)CC3)C2)n1 [CPD-102, 2-((3-(1-(2-(4-(6-((6-Acetyl-8-cyclopentyl-5-methyl-7-oxo-7,8-dihydropyrido[2,3-d]pyrimidin-2-yl)amino)pyridin-3-yl)piperazin-1-yl)acetyl)azetidin-3-yl)propyl)amino)-N-(6-(dimethylamino)pyridazin-3-yl)-6-(methylamino)nicotinamide]
30 to 50%	50 to 80%	CNc1ccc(C(=O)Nc2ccc(N(C)C)nn2)c(NC2CCN(CCNC(=O)CN3CCN(c4ccc(Nc5ncc6c(C)c(C(C)=O)c(=O)n(C7CCCC7)c6n5)nc4)CC3)C2)n1 (stereo not shown) [CPD-106, 2-((1-(2-(2-(4-(6-((6-Acetyl-8-cyclopentyl-5-methyl-7-oxo-7,8-dihydropyrido[2,3-d]pyrimidin-2-yl)amino)pyridin-3-yl)piperazin-1-yl)acetamido)ethyl)pyrrolidin-3-yl)amino)-N-(6-(dimethylamino)pyridazin-3-yl)-6-(methylamino)nicotinamide]
